Laboratory results from ChEMBL document CHEMBL4265899, “Trisubstituted thiazoles as potent and selective inhibitors of Plasmodium falciparum protein kinase G (PfPKG)” (Bioorg Med Chem Lett, 2018).
≈ marks a conversion by molar mass, not a printed value.

Tests used:
[1] = molecular target: Misshapen-like kinase 1 (Homo sapiens) (UniProt Q8N4C8); experiment: Inhibition of human MINK1 at 100 nM
[2] = molecular target: Rho-associated protein kinase 2 (Homo sapiens) (UniProt O75116); experiment: Inhibition of human ROCK2 at 100 nM
[3] = molecular target: Maternal embryonic leucine zipper kinase (Homo sapiens) (UniProt Q14680); experiment: Inhibition of human MELK at 100 nM
Sequence of Maternal embryonic leucine zipper kinase (Homo sapiens) (Q14680 whole entry, looked up): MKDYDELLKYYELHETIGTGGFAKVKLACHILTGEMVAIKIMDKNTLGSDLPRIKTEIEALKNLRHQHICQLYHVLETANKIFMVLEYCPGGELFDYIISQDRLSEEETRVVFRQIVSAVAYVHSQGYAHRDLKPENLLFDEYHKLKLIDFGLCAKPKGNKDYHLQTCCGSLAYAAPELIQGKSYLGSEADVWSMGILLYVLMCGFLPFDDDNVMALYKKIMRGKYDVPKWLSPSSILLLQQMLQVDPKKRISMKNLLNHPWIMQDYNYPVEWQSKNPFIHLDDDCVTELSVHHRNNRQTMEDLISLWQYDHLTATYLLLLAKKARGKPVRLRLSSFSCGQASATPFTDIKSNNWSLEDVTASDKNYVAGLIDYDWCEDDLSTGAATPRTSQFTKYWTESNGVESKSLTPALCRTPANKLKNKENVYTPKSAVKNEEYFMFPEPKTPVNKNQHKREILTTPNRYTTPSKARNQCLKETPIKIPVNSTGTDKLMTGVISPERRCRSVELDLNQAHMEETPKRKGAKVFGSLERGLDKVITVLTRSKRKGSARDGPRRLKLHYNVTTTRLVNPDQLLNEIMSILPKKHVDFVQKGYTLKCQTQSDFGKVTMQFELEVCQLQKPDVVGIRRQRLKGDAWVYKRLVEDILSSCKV

[4] = molecular target: Protein kinase C alpha type (Homo sapiens) (UniProt P17252); experiment: Inhibition of human PKCalpha at 100 nM
[5] = molecular target: Serine/threonine-protein kinase Nek2 (Homo sapiens) (UniProt P51955); experiment: Inhibition of human NEK2a at 100 nM
[6] = molecular target: Calcium/calmodulin-dependent protein kinase kinase 2 (Homo sapiens) (UniProt Q96RR4); experiment: Inhibition of human CAMKKb at 100 nM
Sequence of Calcium/calmodulin-dependent protein kinase kinase 2 (Homo sapiens) (Q96RR4 2-588 limits assumed): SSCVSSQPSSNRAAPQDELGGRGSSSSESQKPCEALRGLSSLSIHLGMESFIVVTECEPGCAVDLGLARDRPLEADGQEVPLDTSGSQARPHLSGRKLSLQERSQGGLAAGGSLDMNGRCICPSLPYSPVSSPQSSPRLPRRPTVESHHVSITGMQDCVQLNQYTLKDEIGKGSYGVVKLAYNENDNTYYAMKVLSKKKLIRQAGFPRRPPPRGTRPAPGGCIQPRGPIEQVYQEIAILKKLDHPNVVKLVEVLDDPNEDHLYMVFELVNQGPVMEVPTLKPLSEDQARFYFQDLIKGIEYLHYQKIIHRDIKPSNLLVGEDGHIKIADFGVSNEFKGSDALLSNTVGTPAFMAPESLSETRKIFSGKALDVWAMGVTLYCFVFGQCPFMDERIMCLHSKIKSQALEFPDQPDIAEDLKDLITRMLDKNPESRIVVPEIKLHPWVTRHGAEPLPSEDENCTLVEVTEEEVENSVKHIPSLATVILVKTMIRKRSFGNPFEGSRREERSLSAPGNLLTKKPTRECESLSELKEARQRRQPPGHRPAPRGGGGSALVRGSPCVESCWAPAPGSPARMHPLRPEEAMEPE

[7] = molecular target: Receptor tyrosine-protein kinase erbB-4 (Homo sapiens) (UniProt Q15303); experiment: Inhibition of human HER4 at 100 nM
Sequence of Receptor tyrosine-protein kinase erbB-4 (Homo sapiens) (Q15303 whole entry): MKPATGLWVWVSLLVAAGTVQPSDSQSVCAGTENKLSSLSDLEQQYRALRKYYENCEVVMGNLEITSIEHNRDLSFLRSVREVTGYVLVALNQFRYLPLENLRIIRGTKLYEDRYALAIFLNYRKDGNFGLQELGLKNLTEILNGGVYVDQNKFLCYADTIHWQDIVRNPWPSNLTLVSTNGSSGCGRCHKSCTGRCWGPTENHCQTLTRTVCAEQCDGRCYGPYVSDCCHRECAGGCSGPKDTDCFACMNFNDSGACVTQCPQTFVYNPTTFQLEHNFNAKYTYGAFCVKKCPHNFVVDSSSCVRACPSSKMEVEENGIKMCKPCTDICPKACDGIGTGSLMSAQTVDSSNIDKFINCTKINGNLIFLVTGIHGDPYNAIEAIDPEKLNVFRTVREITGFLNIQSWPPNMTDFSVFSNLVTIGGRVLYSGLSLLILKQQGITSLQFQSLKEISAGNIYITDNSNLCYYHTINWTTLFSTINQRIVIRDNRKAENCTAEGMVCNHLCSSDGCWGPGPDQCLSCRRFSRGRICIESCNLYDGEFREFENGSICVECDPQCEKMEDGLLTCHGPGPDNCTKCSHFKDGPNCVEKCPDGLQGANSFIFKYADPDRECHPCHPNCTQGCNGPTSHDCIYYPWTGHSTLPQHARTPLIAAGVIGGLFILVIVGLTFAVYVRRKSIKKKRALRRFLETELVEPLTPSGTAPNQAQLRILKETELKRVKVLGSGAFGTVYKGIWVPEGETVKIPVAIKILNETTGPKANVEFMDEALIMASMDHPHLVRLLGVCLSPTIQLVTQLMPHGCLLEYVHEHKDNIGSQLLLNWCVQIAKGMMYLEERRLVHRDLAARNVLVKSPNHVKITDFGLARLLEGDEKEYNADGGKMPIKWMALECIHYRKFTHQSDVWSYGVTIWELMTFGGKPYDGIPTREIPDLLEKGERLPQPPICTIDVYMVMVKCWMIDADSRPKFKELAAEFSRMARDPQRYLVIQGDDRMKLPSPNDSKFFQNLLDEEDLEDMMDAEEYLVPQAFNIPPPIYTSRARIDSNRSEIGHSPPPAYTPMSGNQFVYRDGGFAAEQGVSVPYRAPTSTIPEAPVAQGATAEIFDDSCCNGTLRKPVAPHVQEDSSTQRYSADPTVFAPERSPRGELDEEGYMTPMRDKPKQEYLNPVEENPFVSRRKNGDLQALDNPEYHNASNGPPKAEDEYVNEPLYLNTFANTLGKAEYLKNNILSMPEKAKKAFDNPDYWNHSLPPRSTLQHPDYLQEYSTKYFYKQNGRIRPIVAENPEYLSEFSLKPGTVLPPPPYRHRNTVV

[8] = molecular target: RAC-beta serine/threonine-protein kinase (Homo sapiens) (UniProt P31751); experiment: Inhibition of human PKBbeta at 100 nM
[9] = molecular target: 3-phosphoinositide-dependent protein kinase 1 (Homo sapiens) (UniProt O15530); experiment: Inhibition of human PDK1 at 100 nM
[10] = molecular target: Casein kinase I isoform alpha (Homo sapiens) (UniProt P48729); experiment: Inhibition of human CK1 at 100 nM
[11] = molecular target: Interleukin-1 receptor-associated kinase 4 (Homo sapiens) (UniProt Q9NWZ3); experiment: Inhibition of human IRAK4 at 100 nM
[12] = molecular target: MAP/microtubule affinity-regulating kinase 3 (Homo sapiens) (UniProt P27448); experiment: Inhibition of human MARK3 at 100 nM
[13] = molecular target: MAP kinase-activated protein kinase 5 (Homo sapiens) (UniProt Q8IW41); experiment: Inhibition of human PRAK at 100 nM
[14] = molecular target: T1, Inhibitor of nuclear factor kappa-B kinase subunit beta (Homo sapiens) (UniProt O14920); settings: at 100 nM
T1 sequence (whole entry): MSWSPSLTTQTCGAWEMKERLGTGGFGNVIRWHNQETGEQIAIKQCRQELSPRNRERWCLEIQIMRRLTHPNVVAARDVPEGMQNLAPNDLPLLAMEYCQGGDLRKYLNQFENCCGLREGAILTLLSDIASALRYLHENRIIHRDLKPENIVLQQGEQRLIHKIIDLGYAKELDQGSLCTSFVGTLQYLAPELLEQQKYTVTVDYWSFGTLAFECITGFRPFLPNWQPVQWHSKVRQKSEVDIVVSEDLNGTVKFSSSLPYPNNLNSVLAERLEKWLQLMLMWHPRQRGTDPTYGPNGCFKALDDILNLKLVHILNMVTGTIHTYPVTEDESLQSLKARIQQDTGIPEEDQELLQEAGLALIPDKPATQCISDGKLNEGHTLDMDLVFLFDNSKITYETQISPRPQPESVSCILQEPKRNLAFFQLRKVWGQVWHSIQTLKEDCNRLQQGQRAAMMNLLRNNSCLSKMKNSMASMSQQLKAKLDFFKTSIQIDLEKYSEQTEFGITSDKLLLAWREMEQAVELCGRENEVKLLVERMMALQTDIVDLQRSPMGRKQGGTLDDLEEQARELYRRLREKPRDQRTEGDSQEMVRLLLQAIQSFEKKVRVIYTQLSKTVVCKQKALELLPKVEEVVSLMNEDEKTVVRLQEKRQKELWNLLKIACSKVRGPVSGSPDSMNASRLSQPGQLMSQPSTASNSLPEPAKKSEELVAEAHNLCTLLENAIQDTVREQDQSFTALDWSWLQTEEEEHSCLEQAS
Description: Inhibition of human IKKb at 100 nM

[15] = molecular target: Insulin receptor-related protein (Homo sapiens) (UniProt P14616); experiment: Inhibition of human IRR at 100 nM
[16] = molecular target: Tyrosine-protein kinase BTK (Homo sapiens) (UniProt Q06187); experiment: Inhibition of human BTK at 100 nM
[17] = molecular target: Protein kinase C zeta type (Homo sapiens) (UniProt Q05513); experiment: Inhibition of human PKCzeta at 100 nM
Sequence of Protein kinase C zeta type (Homo sapiens) (Q05513 whole entry): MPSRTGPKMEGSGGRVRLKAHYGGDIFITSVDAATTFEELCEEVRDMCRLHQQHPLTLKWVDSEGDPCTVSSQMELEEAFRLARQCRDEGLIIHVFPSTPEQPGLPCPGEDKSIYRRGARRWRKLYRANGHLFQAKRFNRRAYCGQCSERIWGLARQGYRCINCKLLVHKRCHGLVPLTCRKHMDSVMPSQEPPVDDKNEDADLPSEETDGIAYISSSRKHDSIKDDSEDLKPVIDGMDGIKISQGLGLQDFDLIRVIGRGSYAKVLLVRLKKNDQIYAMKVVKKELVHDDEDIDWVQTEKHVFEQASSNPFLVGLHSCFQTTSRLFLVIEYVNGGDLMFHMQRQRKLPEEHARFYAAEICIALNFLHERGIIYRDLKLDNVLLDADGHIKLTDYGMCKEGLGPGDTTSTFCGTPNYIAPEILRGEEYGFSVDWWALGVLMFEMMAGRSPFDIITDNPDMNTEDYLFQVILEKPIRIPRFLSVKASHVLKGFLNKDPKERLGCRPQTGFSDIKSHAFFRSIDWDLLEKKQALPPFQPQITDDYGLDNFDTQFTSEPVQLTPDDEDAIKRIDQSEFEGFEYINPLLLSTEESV

[18] = molecular target: Serine/threonine-protein kinase TBK1 (Homo sapiens) (UniProt Q9UHD2); experiment: Inhibition of human TBK1 at 100 nM
[19] = Metabolic stability in human liver microsomes assessed as compound remaining after 40 mins; type: ADME, microsome; settings: read-out: Stability
[20] = Kinetic solubility of the compound
[21] = molecular target: Serine/threonine-protein kinase Nek6 (Homo sapiens) (UniProt Q9HC98); experiment: Inhibition of human NEK6 at 100 nM
[22] = molecular target: Dual specificity tyrosine-phosphorylation-regulated kinase 1A (Homo sapiens) (UniProt Q13627); experiment: Inhibition of human DYRK1A at 100 nM
[23] = molecular target: Mitogen-activated protein kinase 9 (Homo sapiens) (UniProt P45984); experiment: Inhibition of human JNK2 at 100 nM
[24] = molecular target: Mitogen-activated protein kinase 1 (Homo sapiens) (UniProt P28482); experiment: Inhibition of human ERK2 at 100 nM
[25] = molecular target: Serine/threonine-protein kinase 3 (Homo sapiens) (UniProt Q13188); experiment: Inhibition of human MST2 at 100 nM
Sequence of Serine/threonine-protein kinase 3 (Homo sapiens) (Q13188 whole entry): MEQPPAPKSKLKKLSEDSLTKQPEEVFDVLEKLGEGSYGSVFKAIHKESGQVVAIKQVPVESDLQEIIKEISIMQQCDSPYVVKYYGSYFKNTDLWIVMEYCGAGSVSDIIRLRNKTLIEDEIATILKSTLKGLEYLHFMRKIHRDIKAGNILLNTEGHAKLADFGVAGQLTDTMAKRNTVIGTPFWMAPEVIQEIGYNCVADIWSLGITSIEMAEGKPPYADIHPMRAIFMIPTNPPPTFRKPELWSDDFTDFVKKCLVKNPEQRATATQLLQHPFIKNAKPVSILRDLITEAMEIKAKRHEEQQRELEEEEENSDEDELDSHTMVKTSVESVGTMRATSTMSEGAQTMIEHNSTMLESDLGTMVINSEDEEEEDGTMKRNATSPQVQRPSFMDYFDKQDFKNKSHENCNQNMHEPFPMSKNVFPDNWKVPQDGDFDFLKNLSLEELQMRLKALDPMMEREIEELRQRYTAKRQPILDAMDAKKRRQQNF

[26] = molecular target: Mitogen-activated protein kinase kinase kinase 1 (Homo sapiens) (UniProt Q13233); experiment: Inhibition of human MEKK1 at 100 nM
[27] = molecular target: MAP kinase-interacting serine/threonine-protein kinase 1 (Homo sapiens) (UniProt Q9BUB5); experiment: Inhibition of human MNK1 at 100 nM

Sequence of Misshapen-like kinase 1 (Homo sapiens) (Q8N4C8 whole entry, looked up): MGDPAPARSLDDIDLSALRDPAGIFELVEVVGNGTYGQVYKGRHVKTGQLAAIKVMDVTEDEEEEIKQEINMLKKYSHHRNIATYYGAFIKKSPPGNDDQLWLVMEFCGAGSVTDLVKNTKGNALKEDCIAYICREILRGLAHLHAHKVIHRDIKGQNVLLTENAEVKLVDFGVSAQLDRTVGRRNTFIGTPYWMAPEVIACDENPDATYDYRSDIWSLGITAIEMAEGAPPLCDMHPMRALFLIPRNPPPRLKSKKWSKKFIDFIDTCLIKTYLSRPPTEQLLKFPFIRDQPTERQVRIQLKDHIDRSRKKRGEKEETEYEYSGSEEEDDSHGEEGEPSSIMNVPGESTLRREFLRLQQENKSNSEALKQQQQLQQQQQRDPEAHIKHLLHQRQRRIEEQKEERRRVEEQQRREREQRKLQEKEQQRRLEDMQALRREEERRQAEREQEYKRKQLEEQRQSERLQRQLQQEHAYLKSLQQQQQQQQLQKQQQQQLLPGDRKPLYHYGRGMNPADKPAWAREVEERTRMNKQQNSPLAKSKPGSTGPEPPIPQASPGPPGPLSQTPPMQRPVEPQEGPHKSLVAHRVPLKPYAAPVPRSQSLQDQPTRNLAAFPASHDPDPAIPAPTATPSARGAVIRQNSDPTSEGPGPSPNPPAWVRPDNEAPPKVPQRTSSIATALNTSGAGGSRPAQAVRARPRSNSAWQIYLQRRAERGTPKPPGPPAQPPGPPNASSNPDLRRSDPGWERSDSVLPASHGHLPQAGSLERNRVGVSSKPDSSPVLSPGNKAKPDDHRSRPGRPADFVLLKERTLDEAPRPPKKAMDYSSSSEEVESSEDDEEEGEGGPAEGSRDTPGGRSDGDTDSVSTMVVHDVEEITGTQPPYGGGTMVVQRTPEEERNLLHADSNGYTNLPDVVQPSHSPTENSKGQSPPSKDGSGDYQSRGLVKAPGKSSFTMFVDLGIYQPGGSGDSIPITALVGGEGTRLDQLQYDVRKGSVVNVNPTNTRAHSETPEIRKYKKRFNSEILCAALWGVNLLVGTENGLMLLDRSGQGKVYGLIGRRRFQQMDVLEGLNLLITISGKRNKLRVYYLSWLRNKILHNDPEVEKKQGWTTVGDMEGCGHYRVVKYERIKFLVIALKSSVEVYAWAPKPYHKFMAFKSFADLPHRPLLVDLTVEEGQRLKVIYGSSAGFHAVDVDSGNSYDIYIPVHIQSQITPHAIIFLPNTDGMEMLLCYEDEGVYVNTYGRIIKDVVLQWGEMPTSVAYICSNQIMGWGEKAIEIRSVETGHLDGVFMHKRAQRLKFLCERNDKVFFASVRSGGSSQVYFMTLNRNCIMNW

CN1CCC(c2nc(-c3cccc(S(C)(=O)=O)c3)c(-c3ccnc(Nc4ccc(N5CCNCC5)cc4)n3)s2)CC1
inhibition [1]: < 70%
inhibition [2]: < 70%
inhibition [3]: < 70%
inhibition [4]: < 70%
inhibition [5]: < 70%
inhibition [6]: < 70%
inhibition [7]: > 90%
inhibition [8]: < 70%
inhibition [9]: < 70%
inhibition [10]: < 70%
inhibition [11]: < 70%
inhibition [12]: < 70%
inhibition [13]: < 70%
inhibition [14]: < 70%
inhibition [15]: < 70%
inhibition [16]: < 70%
inhibition [17]: < 70%
inhibition [18]: < 70%
remaining at 40 min [19]: 84%
solubility kinetic [20]: 208 µM (≈ 123 µg/mL)
inhibition [21]: < 70%
inhibition [22]: < 70%
inhibition [23]: < 70%
inhibition [24]: < 70%
inhibition [25]: < 70%
inhibition [26]: < 70%
inhibition [27]: < 70%

CN1CCC(c2nc(-c3ccc(F)c(NS(C)(=O)=O)c3)c(-c3ccnc(NCC4CC4)n3)s2)CC1
inhibition [1]: < 70%
inhibition [2]: < 70%
inhibition [3]: < 70%
inhibition [4]: < 70%
inhibition [5]: < 70%
inhibition [6]: < 70%
inhibition [7]: < 70%
inhibition [8]: < 70%
inhibition [9]: < 70%
inhibition [10]: < 70%
inhibition [11]: < 70%
inhibition [12]: < 70%
inhibition [13]: < 70%
inhibition [14]: < 70%
inhibition [15]: < 70%
inhibition [16]: < 70%
inhibition [17]: < 70%
inhibition [18]: < 70%
remaining at 40 min [19]: 95%
solubility kinetic [20]: 190 µM (≈ 98.2 µg/mL)
inhibition [21]: < 70%
inhibition [22]: < 70%
inhibition [23]: < 70%
inhibition [24]: < 70%
inhibition [25]: < 70%
inhibition [26]: < 70%
inhibition [27]: < 70%
